1 compound from ChEMBL document CHEMBL2074045, “Up-regulation of P-glycoprotein expression in rat liver cells by acute doxorubicin treatment” (Eur J Biochem, 1997) can be followed below.

Series [1] deals with ATP-dependent translocase ABCB1 (Rattus norvegicus, UniProt P43245). The series can be described thus: TP_TRANSPORTER: Northern blot in vitro, nonparenchymal ral liver epithelial cells. The series is classed as functional. The conditions noted are these: epithelial cell.
Series [2] addresses Multidrug resistance protein 1a (Rattus norvegicus) (UniProt Q6PSM0). The series can be described thus: TP_TRANSPORTER: Western in vitro, nonparenchymal ral liver epithelial cells. The series is classed as functional, tissue-based. Particulars: Epithelial cell.

SMILES strings stand for the structures.

Chain of Multidrug resistance protein 1a (Rattus norvegicus) (Q6PSM0 as listed by the source): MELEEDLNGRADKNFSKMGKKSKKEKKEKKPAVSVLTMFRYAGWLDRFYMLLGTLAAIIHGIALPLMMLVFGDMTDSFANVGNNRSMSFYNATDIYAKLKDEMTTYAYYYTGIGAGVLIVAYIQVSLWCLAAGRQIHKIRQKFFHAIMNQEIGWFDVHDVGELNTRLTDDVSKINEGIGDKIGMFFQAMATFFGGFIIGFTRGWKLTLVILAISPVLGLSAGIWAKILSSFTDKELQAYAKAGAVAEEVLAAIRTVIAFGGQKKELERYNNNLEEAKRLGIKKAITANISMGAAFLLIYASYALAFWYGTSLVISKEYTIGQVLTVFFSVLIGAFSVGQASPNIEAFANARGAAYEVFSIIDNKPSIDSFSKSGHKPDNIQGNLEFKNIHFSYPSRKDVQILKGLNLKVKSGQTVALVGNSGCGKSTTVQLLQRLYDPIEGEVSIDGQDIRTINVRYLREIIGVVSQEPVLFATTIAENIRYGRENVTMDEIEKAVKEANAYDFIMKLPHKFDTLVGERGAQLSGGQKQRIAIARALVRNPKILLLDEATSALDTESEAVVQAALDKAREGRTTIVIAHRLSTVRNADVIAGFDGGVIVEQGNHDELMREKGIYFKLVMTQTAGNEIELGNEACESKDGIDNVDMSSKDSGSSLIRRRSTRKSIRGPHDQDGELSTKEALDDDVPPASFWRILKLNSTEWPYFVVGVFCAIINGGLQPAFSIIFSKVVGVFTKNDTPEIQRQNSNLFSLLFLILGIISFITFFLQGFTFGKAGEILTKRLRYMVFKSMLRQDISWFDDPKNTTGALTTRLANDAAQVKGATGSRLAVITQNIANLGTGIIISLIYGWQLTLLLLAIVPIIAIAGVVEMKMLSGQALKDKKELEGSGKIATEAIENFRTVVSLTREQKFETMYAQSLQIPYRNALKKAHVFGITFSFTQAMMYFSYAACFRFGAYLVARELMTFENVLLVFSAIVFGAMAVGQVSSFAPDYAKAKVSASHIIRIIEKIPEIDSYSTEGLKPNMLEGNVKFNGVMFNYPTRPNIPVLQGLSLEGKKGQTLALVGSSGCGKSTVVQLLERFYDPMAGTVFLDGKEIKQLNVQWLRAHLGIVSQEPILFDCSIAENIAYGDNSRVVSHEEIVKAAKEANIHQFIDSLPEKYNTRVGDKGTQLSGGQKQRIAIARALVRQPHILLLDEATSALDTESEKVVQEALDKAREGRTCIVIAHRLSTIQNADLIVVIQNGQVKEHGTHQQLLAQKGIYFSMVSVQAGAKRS
Chain of ATP-dependent translocase ABCB1 (P43245 whole entry): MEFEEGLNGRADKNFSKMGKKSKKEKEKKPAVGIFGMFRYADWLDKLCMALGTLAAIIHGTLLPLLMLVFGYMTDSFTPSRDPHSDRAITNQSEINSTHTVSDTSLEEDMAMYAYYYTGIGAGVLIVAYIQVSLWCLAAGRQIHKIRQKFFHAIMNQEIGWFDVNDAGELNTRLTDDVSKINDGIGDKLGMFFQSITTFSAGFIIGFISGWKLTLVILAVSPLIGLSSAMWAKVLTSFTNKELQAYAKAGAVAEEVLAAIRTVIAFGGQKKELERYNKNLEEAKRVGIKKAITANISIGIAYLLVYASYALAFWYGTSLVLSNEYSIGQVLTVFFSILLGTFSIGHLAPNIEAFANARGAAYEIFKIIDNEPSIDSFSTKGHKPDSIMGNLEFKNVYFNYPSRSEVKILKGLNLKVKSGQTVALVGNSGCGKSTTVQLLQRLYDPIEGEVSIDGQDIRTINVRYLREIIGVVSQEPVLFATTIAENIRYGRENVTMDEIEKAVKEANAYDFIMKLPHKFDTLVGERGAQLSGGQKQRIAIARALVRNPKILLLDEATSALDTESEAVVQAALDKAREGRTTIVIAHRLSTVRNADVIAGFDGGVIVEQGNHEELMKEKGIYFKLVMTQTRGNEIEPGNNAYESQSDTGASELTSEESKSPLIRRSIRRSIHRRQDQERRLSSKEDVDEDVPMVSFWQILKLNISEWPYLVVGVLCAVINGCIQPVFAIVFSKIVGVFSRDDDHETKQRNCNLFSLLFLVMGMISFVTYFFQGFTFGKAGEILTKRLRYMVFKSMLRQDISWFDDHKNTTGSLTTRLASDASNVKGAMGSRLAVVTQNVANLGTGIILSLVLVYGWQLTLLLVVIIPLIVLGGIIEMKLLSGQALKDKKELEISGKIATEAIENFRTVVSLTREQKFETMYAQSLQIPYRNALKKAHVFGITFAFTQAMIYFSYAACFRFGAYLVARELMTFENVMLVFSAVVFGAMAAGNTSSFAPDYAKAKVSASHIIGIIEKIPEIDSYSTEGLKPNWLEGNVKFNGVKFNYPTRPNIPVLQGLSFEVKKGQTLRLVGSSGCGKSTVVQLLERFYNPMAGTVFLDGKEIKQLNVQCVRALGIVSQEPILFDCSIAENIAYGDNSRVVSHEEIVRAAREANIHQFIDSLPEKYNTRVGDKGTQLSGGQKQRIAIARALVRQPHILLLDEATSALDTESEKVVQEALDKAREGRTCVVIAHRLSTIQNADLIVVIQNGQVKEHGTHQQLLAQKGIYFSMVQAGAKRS

For the compound `COc1cccc2c1C(=O)c1c(O)c3c(c(O)c1C2=O)C[C@@](O)(C(=O)CO)C[C@@H]3O[C@H]1C[C@H](N)[C@H](O)[C@H](C)O1` [DOXORUBICIN], the Activity result in series [1] and in series [2] was “inducer [+]” in each case.
